In patent publication US12545639B2, “3-substituted phenylamidine compounds, preparation and use thereof” (PI INDUSTRIES LTD., priority 2019, dated 2026):

Key:
Pyricularia oryzae [1] = assay: whole plant or invertebrate; type: in vivo, Pyricularia oryzae on rice; settings: read-out: Efficacy (% control), disease severity compared to the untreated check
Pyricularia oryzae [2] = assay: microbe, parasite or virus in culture; type: cell-based; settings: 168 h, read-out: control compared to the untreated check (radial growth)
Rhizoctonia solani = Rhizoctonia solani (rice sheath blight/potato black scurf) in vitro test, radial growth on potato dextrose agar; type: cell-based; settings: 168 h, 300 ppm in potato dextrose agar, 25° C., 60% relative humidity, seven days, read-out: control compared to the untreated check (radial growth)
Botrytis cinerea = Botrytis cinerea (gray mold) in vitro test, radial growth on potato dextrose agar; type: cell-based; settings: 168 h, 300 ppm in potato dextrose agar, 22° C., 90% relative humidity, seven days, read-out: control compared to the untreated check (radial growth)
[3] = test system: Septoria lycopersici/Corynespora cassicola (CORYCA); assay: Septoria lycopersici/Corynespora cassicola (CORYCA) (leaf spot of tomato) in vitro test, radial growth on potato dextrose agar; type: cell-based; settings: 168 h, 300 ppm in potato dextrose agar, 25° C., 70% relative humidity, seven days, read-out: control compared to the untreated check (radial growth)
Colletotrichum capsici = Colletotrichum capsici (anthracnose) in vitro test, radial growth on potato dextrose agar; type: cell-based; settings: Colletotrichum truncatum, 168 h; 300 ppm in potato dextrose agar; 25° C., 60% relative humidity, seven days; read-out: control compared to the untreated check (radial growth)
Phakopsora pachyrhizi = Phakopsora pachyrhizi test in soybean, preventive, in vivo on plants; settings: in Glycine max, read-out: Efficacy (% control), disease severity compared to the untreated check
Alternaria solani = Alternaria solani (early blight of tomato/potato) in vitro test, radial growth on potato dextrose agar; type: cell-based; settings: 168 h, 300 ppm in potato dextrose agar, 25° C., 60% relative humidity, seven days, read-out: control compared to the untreated check (radial growth)
Fusarium culmorum = Fusarium culmorum (foot rot of cereals) in vitro test, radial growth on potato dextrose agar; type: cell-based; settings: 168 h, 300 ppm in potato dextrose agar, 25° C., 60% relative humidity, seven days, read-out: control compared to the untreated check (radial growth)
Summary of the method: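 Compound in 0.3% DMSO mixed into potato dextrose agar, plates seeded with a 5 mm mycelial disc from an actively growing virulent culture. After seven days at 25° C and 60% relative humidity, radial growth was measured against untreated control.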

CCN(C)C=Nc1cc(C)cc(Cc2ccc(C(F)(F)F)cc2)c1Cl [Compound 51, N′-(2-chloro-5-methyl-3-(4-(trifluoromethyl)benzyl)phenyl)-N-ethyl-N-methylformimidamide]
≥ 70%: pest or weed control at 500 ppm (Pyricularia oryzae [1]) | inhibition of growth at 300 ppm (Pyricularia oryzae [2]) | inhibition of growth at 300 ppm (Rhizoctonia solani) | inhibition of growth at 300 ppm (Botrytis cinerea) | inhibition of growth at 300 ppm [3] | inhibition of growth at 300 ppm (Colletotrichum capsici) | pest or weed control at 500 ppm (Phakopsora pachyrhizi) | inhibition of growth at 300 ppm (Alternaria solani) | inhibition of growth at 300 ppm (Fusarium culmorum)

CCN(C)C=Nc1cc(C)cc(Cc2cc(C)cc(C)c2)c1Cl [Compound 55, N′-(2-chloro-3-(3,5-dimethylbenzyl)-5-methylphenyl)-N-ethyl-N-methylformimidamide]
≥ 70%: pest or weed control at 500 ppm (Pyricularia oryzae [1]) | inhibition of growth at 300 ppm (Pyricularia oryzae [2]) | inhibition of growth at 300 ppm (Rhizoctonia solani) | inhibition of growth at 300 ppm (Botrytis cinerea) | inhibition of growth at 300 ppm [3] | pest or weed control at 500 ppm (Phakopsora pachyrhizi) | inhibition of growth at 300 ppm (Alternaria solani) | inhibition of growth at 300 ppm (Fusarium culmorum)
